Measurements as given in publication PMC9243654 (Frontiers in Nutrition, 2022).
Like-named read-outs stand apart in the source and are kept apart here. Each block holds one compound with its values, some of them ahead of it.

What was measured:
[1] = ref PubChem database, cited from earlier work
[2] = in vitro
Description: The PAMPA-BBB assay was conducted according to the methodology followed by Di et al., with some modifications as described below ([15]). First, the BBB solution was prepared by dissolving 8 mg of PBL and 4 mg of cholesterol in 600 μl of n-dodecane. The initial donor solution was prepared by mixing 1 ml of extract (10 mg ml^−1 in EtOH) with 1 ml of buffer (PBS, pH = 7.4, 10 mM). The filter membrane of the donor plate was carefully coated with 5 μl of BBB solution. The acceptor plate was filled with 350 μl of buffer, and the donor plate was carefully assembled over the acceptor plate like a “sandwich.” Finally, the donor plate was filled with 350 μl of donor solution, covered, and incubated for 4 h at 37°C in the dark. After incubation time, 300 μl of the solution was taken from both plates, transferred to separate vials, and dried in the SpeedVac system at 40°C and 13 mbar pressure. Dried acceptor and donor solution were dissolved in 50 μl of pure EtOH before subjecting to UHPLC-Q-TOF-MS analysis. Permeability across in vitro BBB of the bioactive compound was measured according to Equation (1) ([25]), with some modifications in concentration rates.
(1) Pe=-ln[1-CA(t)/Ce]/A^*(1/VD+1/VA)^*t
Cequilibrium was calculated according to the following equation ([2]):
(2) Cequilibrium=[CD(t)*VD+CA(t)*VA]/(VD+VA)

[3] = compounds of RSFE extract, octanol-water partition coefficient
[4] = compounds identified in LPLE extract
[5] = compound within LPLE (Nothofagus pumilio, lenga PLE extract), classes based on Könczöl et al.
[6] = compound within KD extract, 4 h, 37°C, PBS pH 7.4
[7] = PAMPA, pH 7.4, PAMPA-BBB log Pe (cm s−1)
[8] = PAMPA, pH 7.4, PAMPA-BBB log Pe (cm s−1), compound within KD extract, 4 h, 37°C, PBS pH 7.4
[9] = compound within LPLE (Nothofagus pumilio, lenga PLE extract), N.D = not detected in acceptor
[10] = PAMPA, pH 7.4, PAMPA-BBB log Pe, compound within LPLE (Nothofagus pumilio, lenga PLE extract), N.D = not detected in acceptor

Cross BBB potential ([2]; PAMPA): +++
PAMPA-BBB log Pe (cm s−1) ([2]; PAMPA, 4 h, pH 7.4): −4.36 cm s−1
SMILES: COc1cc2oc(-c3ccc(O)cc3)cc(=O)c2c(O)c1OC [Crisimaritin]
Log P [1, 3]: 2.0

SMILES: C[C@@H]1C(=O)C[C@@H](C(C)(C)O)O[C@@H]2C[C@@]3(C)[C@@H]4CC=C5[C@@H](C=C(O)C(=O)C5(C)C)[C@]4(C)C(=O)C[C@]3(C)[C@@H]12 [Cucurbitacin S]
Log P [1, 4]: 3.2
Log P ([1]; compounds of ASFE extract): 3.2
Cross BBB potential [2, 5]: -

SMILES: CC12O[C@H]3C[C@@H](O1)[C@]1(C=O)[C@H]4[C@H](O)C(=O)[C@]5(C)[C@@H](c6ccc(=O)oc6)CC[C@]5(O)[C@@H]4CC[C@@]1(C3)O2 [Daigremontianin]
Log P ([1]; compounds of KD extract): −0.3
detection in the acceptor plate of PAMPA-BBB ([2]; PAMPA): could not be found in the acceptor plate
Cross BBB potential ([2]; compound within KD extract): ++ (log Pe > −5.5)
PAMPA-BBB log Pe (cm s−1) [2, 6]: −4.53 cm s−1

SMILES: O=c1ccc2cc(O[C@@H]3O[C@H](CO)[C@@H](O)[C@H](O)[C@H]3O)c(O)cc2o1 [Esculin]
Log P [1, 3]: −0.6
Cross BBB potential ([2]; PAMPA): +++ (key: -: not detected in acceptor; +: log Pe > −6.5; ++: log Pe > −5.5; +++: log Pe > −4.5)
Papp [2, 7]: 50.1 ×10⁻⁶ cm/s

SMILES: COc1c(O)cc2oc(-c3ccc(O)c(O)c3)cc(=O)c2c1O [Eupafolin]
Log P ([1]; compounds of KD extract): 1.4
Papp at 4 h [2, 8]: 339 ×10⁻⁶ cm/s
Cross BBB potential ([2]; compound within KD extract): +++ (log Pe > −4.5)

Cross BBB potential ([2]; compound within ASFE extract): -
Cross BBB potential [2, 5]: -
SMILES: COc1cc(/C=C/C(=O)OC(C(=O)O)C(O)C(=O)O)ccc1O (centres unmarked) [Fertaric acid]
Log P [1, 4]: 0.4
Log P ([1]; compounds of ASFE extract): 0.4

Cross BBB potential ([2]; PAMPA): +++
PAMPA-BBB log Pe (cm s−1) ([2]; PAMPA, 4 h, pH 7.4): −4.41 cm s−1
SMILES: CC(C)c1cc2c(c(O)c1O)[C@@]13CCCC(C)(C)[C@@H]1[C@H](OC3=O)C2=O [Galdosol]
Log P [1, 3]: 4

SMILES: CC(CC(=O)C[C@@H](C)[C@H]1C[C@H](O)[C@@]2(C)C3=C(C(=O)C[C@]12C)[C@@]1(C)CC[C@H](O)C(C)(C)[C@@H]1CC3)C(=O)O (some centres unmarked) [Ganolucidic acid B]
Log P [1, 4]: 3.8
Log P ([1]; compounds of ASFE extract): 3.8
Cross BBB potential ([2]; compound within ASFE extract): -
Cross BBB potential [2, 5]: -

Cross BBB potential ([2]; compound within ASFE extract): -
Cross BBB potential [2, 5]: -
SMILES: CC(CC(=O)CC(C)C1CC(O)C2(C)C3=C(C(=O)CC12C)C1(C)CCC(O)C(C)(CO)C1CC3)C(=O)O (centres unmarked) [Ganolucidic acid C]
Log P [1, 4]: 3.1
Log P ([1]; compounds of ASFE extract): 3.1

SMILES: CC(=O)O[C@H]1CC[C@]2(CO)[C@H]3CC[C@]4(C)[C@@H](c5ccc(=O)oc5)CC[C@]4(O)[C@@H]3CC[C@]2(O)C1 [Hellebrigenol-3-monoacetate]
Log P ([1]; compounds of KD extract): 1.6
Cross BBB potential ([2]; compound within KD extract): ++ (log Pe > −5.5)
PAMPA-BBB log Pe (cm s−1) [2, 6]: −4.70 cm s−1

SMILES: COc1ccc([C@@H]2CC(=O)c3c(O)cc(O)cc3O2)cc1O [Hesperetin]
Log P [1, 4]: 2.4
Papp at 4 h ([2]; PAMPA, pH 7.4, PAMPA-BBB log Pe): 5.01 ×10⁻⁶ cm/s

SMILES: COc1ccc([C@@H]2CC(=O)c3c(O)cc(O[C@@H]4O[C@H](CO[C@@H]5O[C@@H](C)[C@H](O)[C@@H](O)[C@H]5O)[C@@H](O)[C@H](O)[C@H]4O)cc3O2)cc1O [Hesperidin]
Log P [1, 4]: −1.1
Log P ([1]; compounds of ASFE extract): −1.1
Cross BBB potential ([2]; compound within ASFE extract): -
Cross BBB potential [2, 5]: -

SMILES: O=C(O)CCCCCCCCCCCCCCC(=O)O [Hexadecanedioic acid]
Log P [1, 4]: 5.4
Log P ([1]; compounds of ASFE extract): 5.4
Cross BBB potential ([2]; compound within ASFE extract): -
Cross BBB potential [2, 5]: -

SMILES: CC(C)c1cc2c(cc1O)C1(C)CCC(=O)C(C)(C)C1CC2 (centres unmarked) [Hinokione]
Log P [1, 3]: 4.9
Cross BBB potential ([2]; compound within RSFE extract): -

Cross BBB potential ([2]; PAMPA): +++
PAMPA-BBB log Pe (cm s−1) ([2]; PAMPA, 4 h, pH 7.4): −4.24 cm s−1
SMILES: COc1c(O[C@@H]2O[C@H](CO)[C@@H](O)[C@H](O)[C@H]2O)cc2oc(-c3ccc(O)cc3)cc(=O)c2c1O [Homoplantaginin]
Log P [1, 3]: 0.8

SMILES: COc1cc(-c2oc3cc(O)cc(O)c3c(=O)c2O[C@@H]2O[C@H](CO)[C@@H](O)[C@H](O)[C@H]2O)ccc1O [Isorhamnetin-3-O-glucoside]
Log P [1, 3]: 0.7
Cross BBB potential ([2]; compound within RSFE extract): -

Cross BBB potential ([2]; compound within KD extract): -
SMILES: O=c1c(O[C@@H]2O[C@H](CO)[C@@H](O)[C@H](O)[C@H]2O)c(-c2ccc(O)cc2)oc2cc(O)cc(O)c12 [Kaempferol 3-O-β-D-glucoside]
Log P ([1]; compounds of KD extract): 2.37

SMILES: C[C@H]1O[C@H](O[C@H]2CC[C@]3(C=O)[C@H]4CC[C@]5(C)[C@@H](c6ccc(=O)oc6)CC[C@]5(O)[C@@H]4CC[C@]3(O)C2)[C@H](O)[C@@H](O)[C@@H]1O [Kalanchoside A]
Log P ([1]; compounds of KD extract): −0.1
Cross BBB potential ([2]; compound within KD extract): -

SMILES: CC(=O)O[C@H]1C[C@H](C)O[C@@H](O[C@H]2CC[C@]3(C=O)[C@H]4[C@H](O)C(=O)[C@]5(C)[C@@H](c6ccc(=O)oc6)CC[C@]5(O)[C@@H]4CC[C@]3(O)C2)[C@H]1O [Kalantuboside A]
Log P ([1]; compounds of KD extract): 7.5
Cross BBB potential ([2]; compound within KD extract): -

SMILES: COc1ccc(-c2cc(=O)c3c(O)c(O)c(OC)cc3o2)cc1 [Ladanein]
Log P [1, 3]: 2.0
Papp at 4 h ([2]; PAMPA, pH 7.4, PAMPA-BBB log Pe (cm s−1), compound within RSFE extract, 4 h, 37°C, PBS pH 7.4): 141 ×10⁻⁶ cm/s
Cross BBB potential ([2]; compound within RSFE extract): +++ (log Pe > −4.5)

Cross BBB potential ([2]; PAMPA): ++
PAMPA-BBB log Pe [2, 9]: −4.74 cm s−1
SMILES: CC1(C)C[C@@H]2C3=CC[C@@H]4[C@@]5(C)CC[C@H](O)[C@@](C)(C=O)C5CC[C@@]4(C)[C@]3(C)CC[C@@]2(C(=O)O)C[C@@H]1O (some centres unmarked) [Lucyin A]
Log P [1, 4]: 5.3
Log P ([1]; compounds of ASFE extract): 5.3

Cross BBB potential ([2]; PAMPA): ++
Papp at 4 h [2, 7]: 5.5 ×10⁻⁶ cm/s
SMILES: COC(=O)[C@]12CCCC(C)(C)[C@@H]1CCc1cc(C(C)C)c(O)c(O)c12 [Methyl carnosate]
Log P [1, 3]: 5.2

Cross BBB potential ([2]; compound within RSFE extract): -
SMILES: C=C1CC[C@]2(C(=O)O)CC[C@]3(C)C(=CC[C@@H]4[C@@]5(C)CC[C@H](O)C(C)(C)[C@@H]5CC[C@]43C)[C@@H]2[C@H]1C [Micromeric acid]
Log P [1, 3]: 6.5

Cross BBB potential ([2]; compound within KD extract): -
SMILES: O=c1c(-c2ccc(O)cc2)coc2c([C@@H]3O[C@H](CO)[C@@H](O)[C@H](O)[C@H]3O)c(O)c([C@@H]3O[C@H](CO)[C@@H](O)[C@H](O)[C@H]3O)c(O)c12 [Paniculatin]
Log P ([1]; compounds of KD extract): −2.3

SMILES: COc1c(O)cc2oc(-c3ccc(O)c(O)c3)c(O)c(=O)c2c1O [Patuletin]
Log P ([1]; compounds of KD extract): 2.1
Cross BBB potential ([2]; compound within KD extract): -

Cross BBB potential ([2]; PAMPA): ++
PAMPA-BBB log Pe (cm s−1) ([2]; PAMPA, 4 h, pH 7.4): −4.51 cm s−1
SMILES: CC(=O)OC(C)(C)[C@@H]1CC[C@@]2(C)CO[C@]3(C)C=CO[C@]23C1 [Phytuberin]
Log P ([1]; compounds of T33 extract): 2.3

Cross BBB potential [2, 5]: -
SMILES: OC[C@H]1O[C@@H](Oc2cc(O)cc(/C=C/c3ccc(O)cc3)c2)[C@H](O)[C@@H](O)[C@@H]1O [Piceid]
Log P [1, 4]: 1.7
Log P ([1]; compounds of ASFE extract): 1.7

Cross BBB potential ([2]; PAMPA): +++
PAMPA-BBB log Pe (cm s−1) ([2]; PAMPA, 4 h, pH 7.4): −3.92 cm s−1
Papp at 4 h [2, 7]: 148 ×10⁻⁶ cm/s
Papp at 4 h [2, 8]: 105 ×10⁻⁶ cm/s
Papp at 4 h [2, 10]: 138 ×10⁻⁶ cm/s
SMILES: O=C(O)c1ccc(O)c(O)c1 [Protocatechuic acid]
Log P [1, 4]: 1.1
Log P ([1]; compounds of ASFE extract): 1.1
Log P ([1]; compounds of KD extract): 1.1

SMILES: O=Cc1ccc(O)c(O)c1 [Protocatechuic aldehyde]
Log P [1, 4]: 1.1
Log P ([1]; compounds of ASFE extract): 1.1
PAMPA-BBB log Pe (cm s−1) ([2]; PAMPA, pH 7.4): −5.75 cm s−1
PAMPA-BBB log Pe [2, 9]: −5.13 cm s−1

SMILES: Oc1cccc(O)c1O [Pyrogallol]
Log P [1, 4]: 0.5
Cross BBB potential ([2]; PAMPA): -

SMILES: O=c1c(O)c(-c2ccc(O)c(O)c2)oc2cc(O)cc(O)c12 [Quercetin, reference compound]
Log P [1, 4]: 1.5
Log P ([1]; compounds of ASFE extract): 1.5
Log P ([1]; compounds of KD extract): 1.5
Papp at 4 h ([2]; PAMPA, pH 7.4, LogPe, permeability of BBB to quercetin, present study): 0.0955 ×10⁻⁶ cm/s
Papp at 4 h [2, 10]: 0.0245 ×10⁻⁶ cm/s
